According to the NIST ThermoML archive (doi:10.1016/j.jct.2013.04.021):

Test: xn = mol fraction of the nth substance listed
Conditions: 101 kPa, Liquid; for mass density: Vibrating tube method; for speed of sound: fixed-path interferometer; for viscosity: Capillary tube (Ostwald / Ubbelohde) method

CCCCOCCO [2-butoxyethan-1-ol] + CCCCCCCCCCO
Conditions	mass density [kg/m3]	speed of sound [m/s]	viscosity [mPa·s]
293.15 K, x1 = 0.0563	832.457	1392	–
293.15 K, x1 = 0.1024	834.521	1388.2	–
293.15 K, x1 = 0.1544	836.95	1383.8	–
293.15 K, x1 = 0.2049	839.424	1379.5	–
293.15 K, x1 = 0.2531	841.903	1374.8	–
293.15 K, x1 = 0.3066	844.775	1369.9	–
293.15 K, x1 = 0.4028	850.363	1360.7	–
293.15 K, x1 = 0.5033	856.773	1351.5	–
293.15 K, x1 = 0.6031	863.803	1343.5	–
293.15 K, x1 = 0.7009	871.448	1337.1	–
293.15 K, x1 = 0.8043	880.396	1331.2	–
293.15 K, x1 = 0.8532	884.962	1328.7	–
293.15 K, x1 = 0.8996	889.528	1326.3	–
293.15 K, x1 = 0.9447	894.239	1324.5	–
298.15 K, x1 = 0.0563	829	1374.9	10.7
298.15 K, x1 = 0.1024	831.148	1371.1	9.884
298.15 K, x1 = 0.1544	833.643	1366.8	9.125
298.15 K, x1 = 0.2049	836.177	1362.6	8.425
298.15 K, x1 = 0.2531	838.694	1358.3	7.84
298.15 K, x1 = 0.3066	841.628	1353.7	7.29
298.15 K, x1 = 0.4028	847.26	1344.9	6.351
298.15 K, x1 = 0.5033	853.675	1336.1	5.491
298.15 K, x1 = 0.6031	860.637	1328.2	4.852
298.15 K, x1 = 0.7009	868.128	1321.1	4.26
298.15 K, x1 = 0.8043	876.828	1314.9	3.68
298.15 K, x1 = 0.8532	881.288	1312.6	3.446
298.15 K, x1 = 0.8996	885.737	1310.2	3.261
298.15 K, x1 = 0.9447	890.317	1308.3	3.107
303.15 K, x1 = 0.0563	825.535	1358.1	8.765
303.15 K, x1 = 0.1024	827.625	1354.4	8.155
303.15 K, x1 = 0.1544	830.09	1350.1	7.554
303.15 K, x1 = 0.2049	832.6	1345.9	7.026
303.15 K, x1 = 0.2531	835.09	1341.7	6.577
303.15 K, x1 = 0.3066	837.986	1337.1	6.114
303.15 K, x1 = 0.4028	843.566	1328.9	5.33
303.15 K, x1 = 0.5033	849.927	1320.8	4.683
303.15 K, x1 = 0.6031	856.84	1313.2	4.089
303.15 K, x1 = 0.7009	864.279	1306.3	3.638
303.15 K, x1 = 0.8043	872.98	1299.7	3.162
303.15 K, x1 = 0.8532	877.42	1296.7	2.979
303.15 K, x1 = 0.8996	881.86	1294.2	2.814
303.15 K, x1 = 0.9447	886.371	1291.7	2.671
308.15 K, x1 = 0.0563	822.068	1341.5	7.476
308.15 K, x1 = 0.1024	824.141	1337.8	6.95
308.15 K, x1 = 0.1544	826.569	1333.9	6.449
308.15 K, x1 = 0.2049	829.044	1330	5.981
308.15 K, x1 = 0.2531	831.491	1326.1	5.619
308.15 K, x1 = 0.3066	834.361	1321.8	5.215
308.15 K, x1 = 0.4028	839.86	1314.1	4.618
308.15 K, x1 = 0.5033	846.141	1306	4.088
308.15 K, x1 = 0.6031	852.988	1298.2	3.601
308.15 K, x1 = 0.7009	860.384	1290.9	3.195
308.15 K, x1 = 0.8043	869.011	1283.7	2.808
308.15 K, x1 = 0.8532	873.415	1280.6	2.609
308.15 K, x1 = 0.8996	877.785	1277.7	2.453
308.15 K, x1 = 0.9447	882.225	1275.3	2.295
313.15 K, x1 = 0.0563	818.532	1324.8	–
313.15 K, x1 = 0.1024	820.551	1321.5	–
313.15 K, x1 = 0.1544	822.945	1317.8	–
313.15 K, x1 = 0.2049	825.399	1314.2	–
313.15 K, x1 = 0.2531	827.825	1310.6	–
313.15 K, x1 = 0.3066	830.657	1306.6	–
313.15 K, x1 = 0.4028	836.098	1299.4	–
313.15 K, x1 = 0.5033	842.307	1292	–
313.15 K, x1 = 0.6031	849.078	1284.5	–
313.15 K, x1 = 0.7009	856.416	1277	–
313.15 K, x1 = 0.8043	864.959	1269.4	–
313.15 K, x1 = 0.8532	869.328	1266.2	–
313.15 K, x1 = 0.8996	873.661	1262.7	–
313.15 K, x1 = 0.9447	878.012	1259.7	–
